# Literature values, collected in publication PMC4460250, “Systems Pharmacology Dissecting Holistic Medicine for Treatment of Complex Diseases: An Example Using Cardiocerebrovascular Diseases Treated by TCM” (Evidence-based Complementary and Alternative Medicine : eCAM, 2015).
# Settings: in vivo; cited from earlier work
row,Structure (SMILES),HIA(Human Intestinal Absorption)
1,O=C(O)CCc1nc(-c2ccccc2)c(-c2ccccc2)o1 [Oxaprozin],0.98
2,CN(C)[C@@H]1C(O)=C(C(N)=O)C(=O)[C@@]2(O)C(O)=C3C(=O)c4c(O)cccc4[C@@](C)(O)[C@H]3[C@H](O)[C@@H]12 [Oxytetracycline],0.58
3,NCCC(O)(P(=O)(O)O)P(=O)(O)O [Pamidronic_acid],0.05
4,CC(=O)Nc1ccc(O)cc1 [Paracetamol],0.8
5,Fc1ccc([C@@H]2CCNC[C@H]2COc2ccc3c(c2)OCO3)cc1 [Paroxetine],1
6,Cc1nc(=O)c(C#N)c(NCc2cccnc2)[nH]1 [Pelrinone],0.98
7,CCC[C@H](N[C@@H](C)C(=O)N1[C@H](C(=O)O)C[C@@H]2CCCC[C@@H]21)C(=O)OCC [Perindopril],0.95
8,Nc1ccc(/N=N/c2ccccc2)c(N)n1 [Phenazopyridine],0.9
9,O=C1c2ccccc2C(=O)C1c1ccccc1 [Phenindione],1
10,CCC1(c2ccccc2)C(=O)NC(=O)NC1=O [Phenobarbital],1
11,O=C1NC(=O)C(c2ccccc2)(c2ccccc2)N1 [Phenytoin],0.9
12,O=C(O)c1ccccc1C(=O)Nc1ccc(S(=O)(=O)Nc2nccs2)cc1 [Phthalylsulfathiazole],0.05
13,NS(=O)(=O)c1cc(C(=O)O)cc(N2CCCC2)c1Oc1ccccc1 [Piretanide],0.85
14,CN1C(C(=O)Nc2ccccn2)=C(O)c2ccccc2S1(=O)=O [Piroxicam],1
15,CN1CCC(=C2c3ccccc3CCc3sccc32)CC1 [Pizotyline],0.8
16,C[n+]1ccccc1/C=N/O [Pralidoxime],0.3
17,CC[C@H](C)C(=O)O[C@H]1C[C@H](O)C=C2C=C[C@H](C)[C@H](CC[C@@H](O)C[C@@H](O)CC(=O)O)[C@H]21 [Pravastatin],0.34
18,O=C(C1CCCCC1)N1CC(=O)N2CCc3ccccc3C2C1 (centres unmarked) [Praziquantel],1

row,Structure (SMILES),HIA(Human Intestinal Absorption)
1,COc1cc2nc(N3CCN(C(=O)c4ccco4)CC3)nc(N)c2cc1OC [Prazosin],0.86
2,CCC1(c2ccccc2)C(=O)NCNC1=O [Primidone],0.75
3,CCCN(CCC)S(=O)(=O)c1ccc(C(=O)O)cc1 [Probenecid],1
4,[H]/N=C(\N/C(=N/[H])Nc1ccc(Cl)cc1)NC(C)C [Proguanil],0.8
5,CNCCCC1c2ccccc2C=Cc2ccccc21 [Protriptyline],0.95
6,NC(=O)c1cnccn1 [Pyrazinamide],1
7,OCCOCCN1CCN(C2=Nc3ccccc3Sc3ccccc32)CC1 [Quetiapine],0.73
8,CCCN1CC(NS(=O)(=O)N(CC)CC)CC2Cc3c(O)cccc3CC21 (centres unmarked) [Quinagolide],1
9,COCCCOc1ccnc(C[S+]([O-])c2nc3ccccc3[nH]2)c1C (centres unmarked) [Rabeprazole],0.9
10,CNC(=C[N+](=O)[O-])NCCSCc1ccc(CN(C)C)o1 [Ranitidine],0.5
11,Cc1cccc(C)c1NC(=O)NCCCNC(C)C [Recainam],0.71
12,NC(=O)c1ncn([C@@H]2O[C@H](CO)[C@@H](O)[C@H]2O)n1 [Ribavirin],0.33
13,CC(NCCc1ccc(O)cc1)C(O)c1ccc(O)cc1 (centres unmarked) [Ritodrine],0.95
14,CN(C)CCc1c[nH]c2ccc(Cn3cncn3)cc12 [Rizatriptan],0.9
15,O=C1NS(=O)(=O)c2ccccc21 [Saccharin],0.88
16,O=C(Oc1ccccc1C(=O)O)c1ccccc1O [Salsalate],1
17,O=c1[nH]c(=O)n([C@@H]2O[C@H](CO)[C@@H](O)[C@@H]2O)cc1/C=C/Br [Sorivudine],0.82
